Like-named read-outs stand apart in the source and are kept apart here.
How the values were obtained:
[1] = tested on: HCC cells (MHCC97 H and SMMC 7721); test: MTT cell proliferation assay; format: cell-based, human; conditions: 1–7 days
Procedure: (§1) Cell viability was assessed using MTT experiments. Cells, together with KA, were seeded into 96-well plates at a density of 2000 cells per well with three replicates per condition. DMSO was used as a control. At designated time points, 20 μL of MTT (Sigma, St. Louis, MO, USA) solution was added to each well and incubated for 3 h. After removing the culture medium, 200 μL of DMSO was added to dissolve the formazan crystals. The absorbance was then measured using a microplate reader at a wavelength of 560 nm.

[2] = tested on: MHCC97 H cells; test: MTT IC50 determination in MHCC97 H; format: cell-based, human; conditions: Homo sapiens, MHCC97H
Procedure: as §1

[3] = target: T1, YWHAB (Homo sapiens, UniProt P31946); test: Epoxy-activated Sepharose 6B pull-down; format: binding; parameters: host or cells: HEK 293T; conditions: KA immobilized on Sepharose 6B, HEK 293T overexpressing YWHAB
T1 sequence (P31946 1-246): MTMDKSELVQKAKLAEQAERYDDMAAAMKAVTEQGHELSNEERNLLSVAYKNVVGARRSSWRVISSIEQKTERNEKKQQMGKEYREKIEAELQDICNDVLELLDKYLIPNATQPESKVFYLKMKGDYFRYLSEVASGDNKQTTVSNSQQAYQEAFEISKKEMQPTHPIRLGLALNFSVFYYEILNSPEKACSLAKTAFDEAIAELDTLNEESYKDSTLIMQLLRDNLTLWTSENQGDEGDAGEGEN
Procedure: Epoxy-activated Sepharose 6B (Cytia, Washington, DC, USA) affinity media was used to bind KA molecules following the media’s absorbency swelling. The Sepharose 6B media was co-incubated with KA or DMSO and gently agitated overnight at room temperature. The product was then thoroughly washed through at least three cycles. Any remaining active groups were blocked using 1 M ethanolamine, incubated for 4 h at 37 °C. The 6B media, now bound with KA or DMSO, were further incubated with the cell lysate sample overnight, with gentle agitation at 4 °C. The media was washed again through a minimum of three cycles. A suitable amount of loading buffer was added, and the samples were heated in a 100 °C water bath for 15 min. The resulting supernatant was then ready for use in SDS-PAGE electrophoresis.

[4] = tested on: HCC cells (MHCC97 H and SMMC 7721); test: EdU staining proliferation assay; format: cell-based, human
Procedure: EdU staining was employed to assess cell proliferation following the manufacturer’s guidelines (Beyotime, Shanghai, China). A total of 2 × 10^4 cells, together with KA or DMSO, were seeded into 24-well plates and cultured for 48 h. Subsequently, the cells were incubated with […] EDU for 2 h, followed by fixation with 4% PFA for 15 min, permeabilization with 0.3% Triton X-100 for 10 min, and reaction with Click reaction cocktails for 30 min. Finally, the nuclei were stained with DAPI for 30 min at room temperature before microscopic examination.

[5] = tested on: HCC cells (MHCC97 H and SMMC 7721); test: Flow cytometry cell cycle analysis, result stated for HCC cells; format: cell-based, human; conditions: 48 h
Procedure: Cells were digested, centrifuged, and resuspended in PBS buffer following 48 h of treatment with either KA or DMSO. Prior to cell cycle analysis, the cells were fixed in 75% ethanol for a minimum of 24 h, followed by labeling with PI and RNase (Beyotime, Shanghai, China). Subsequently, the cells were analyzed using flow cytometry. Each group consisted of three replicates.

[6] = target: T2, YWHAB dimer (Homo sapiens, UniProt P31946); test: Blue-Native PAGE of YWHAB dimer; format: cell-based; parameters: endogenous in cells; host or cells: MHCC97 H and SMMC 7721; conditions: HCC cell lines and FLAG-YWHAB overexpressed HEK 293T cells
T2 sequence (P31946 1-246): T1 sequence (P31946 1-246)
Procedure: Blue/Clear Native PAGE (Real Times, Beijing, China) is an electrophoretic technique used to separate protein complexes from biological samples. Instead of SDS, Coomassie Brilliant Blue G-250 binds to the protein, imparting a negative charge, allowing separation in the PAGE gel based on the molecular weight of the proteins. HCC cells treated with KA or DMSO for 48 h were collected using a cell scraper and lysed on ice in IP cell lysis buffer for one hour. A suitable amount of 4× BN/CN-PAGE protein loading buffer and 5% G-250 stain (for loading) was added to the supernatant of the protein sample, followed by BN-PAGE electrophoresis in the Native PAGE gel. After electrophoresis and membrane transfer, the PVDF membrane (Millipore, Darmstadt, Germany) was blocked with 5% BSA for two hours at room temperature. HPR-linked primary and secondary antibodies were incubated for detection, and protein bands were visualized using the ECL detection system (Clinx, Shanghai, China)

[7] = tested on: SMMC 7721 cells; test: MTT IC50 determination in SMMC 7721; format: cell-based; conditions: Homo sapiens, gradient concentrations, 48 h
Procedure: as §1

In the case of `CC(C)=CCc1c(-c2ccc(O)c3c2OC(C)(C)C=C3)oc2cc(O)cc(O)c2c1=O` [KA, Kuwanon A], the “HCC cell proliferation (continuous MTT)” value ([1]; 10 μM and 15 μM, vs DMSO) is reported as “significantly inhibited HCC cell proliferation in a dose-dependent manner”, the “proliferation inhibition by KA under YWHAB overexpression (MTT)” value ([1]; YWHAB-overexpressing HCC cells, KA 15 μM) is reported as “partly reversed the proliferation inhibition” and the IC50 ([2]; MTT method, read-out: IC50 in MHCC97 H (screen)) is reported as < 20 µM. The IC50 ([2]; MTT, gradient concentrations, 48 h, read-out: IC50 in MHCC97 H) was 8.4 µM, the “interaction with YWHAB (pull-down)” value [3] was “direct interaction” and the “proportion of proliferating HCC cells (EdU)” value ([4]; 48 h treatment) was “significant decrease in the proportion of proliferating HCC cells”. For the same molecule, the “proliferation inhibition by KA under YWHAB overexpression (EdU)” value ([4]; YWHAB-overexpressing HCC cells, KA 15 μM, 48 h) was “partly reversed the proliferation inhibition”, the “cell cycle arrest (flow cytometry)” value ([5]; concentration-dependent) was “significant G0/G1 phase arrest” and the “G0/G1 phase arrest under YWHAB overexpression” value ([5]; YWHAB-overexpressing cells, KA 15 μM) was “less KA-induced G0/G1 phase arrest”. The “proportion of YWHAB dimer (Native-PAGE)” value [6] was “proportion of YWHAB dimer had decreased” and the IC50 [7] was 9.85 µM.
